Data: patent US7824847B2, “Tissue preservation method with polyoxyethylene/polyoxypropylene copolymer” (Regents of the University of California, priority 2003, dated 2010)

Test system: bovine corneal endothelial cells
Experiment: Evaluation of the endothelial cell layer in bovine corneas stored in preservation media at 4° C. (Calcein AM viability staining)
Assay type: cell-based
Conditions: DMSO at 0.5%
Protocol: Evaluations of the endothelial cell layer in bovine corneas in different media. post-incubation survival utility or usefulness for transplantation is defined as less than 3% dying and less than 1.5% missing. Missing cells leave a gap in the layer; calcein-AM staining for esterase activity is used to determine cell health. Transplant surgeons typically use missing cell counts and morphology alone as the index of health and post-incubation survival utility.
Bovine eyes were obtained from Rancho Veal, Petaluma, Calif. Two to 3 hours elapsed between death of the cattle and excision of the cornea with a 1 to 2 millimeter (mm) scleral rim from the enucleated eyes. […]
The viability of the corneal endothelium was quantified with the vital stain Calcein AM (Molecular Probes, Eugene, Oreg.). The hydrophobic and non-fluorescent Calcein AM readily diffuses across the plasma membrane and into the cytoplasm. […] The bright nuclei are easily counted. […] A Zeiss IM-35 inverted fluorescence microscope (Thornwood, N.Y.) equipped with excitation and emission filters for Green Fluorescent Protein (filter set XF100-2 from Omega Optical, Brattleboro, Vt.) was used to illuminate the half cornea. […]
For analysis, each photograph was overlaid with a sheet of transparency film. A felt-tip lab pen was used to mark cells as they were counted and scored as bright (live), dim (dying), or dark (dead or missing). […]

Compound: C[S+](C)[O-] [DMSO, dimethylsulfoxide]
- effect on corneal endothelial cell survival: no effect
